“And” between values parts separate entries of the source, which are not always exact repeats. Equal values may be shown once. Read-outs that look alike come from different tables or passages of the source. Each block holds one molecule with its values, some of them ahead of it.
How the values were obtained:
[1] = system: HO1-mCherry-hiPSC-derived flat renal organoids; assay: Blind-coded screen, mCherry fluorescence of HMOX1 reporter in flat organoids
Procedure: (§1) H O 1-mCherry-hiPSC renal organoids (both flat and 3D) were incubated in a 4-fold dilution series of each compound for either 24 h or 72 h. Data on reporter expression are shown graphically in Figure 5.
(§2) A four-fold dilution series of each blinded compound (lyophilized, obtained from the Gothenburg authors) was prepared and HO1-mCherry-hiPSC-derived renal organoids (flat and 3D) were incubated in these dilutions for either 24h or 72h (Figure 5). A no-treatment control was included for each compound, time-point and organoid type (flat or 3D). 24h flat organoids were cultured in 4 x wells of a 24-well plate; 72h flat organoids in wells of a 96-well plate and 3D organoids on transwell inserts.
(§3) Fluorescence measurements were taken after 24h or 72h. Each live organoid was imaged either 5 times with 4 replicates (flat organoids, 24h), once with 10 replicates (flat organoids, 72h), once with 3 replicates (3D organoids, 24h) or 3 times with 3 replicates (3D organoids, 72h). Organoids were imaged using a Zeiss Axiovert microscope with Axiovision software. All images used for fluorescence intensity analysis were taken with identical exposures and settings. All images were analysed using ImageJ. The total fluorescence intensity of the image was multiplied by the total area with a signal between 600 (lower threshold) and 4096 (higher threshold), where 0 is completely black and 4096 is completely white. Thus, only signal above a certain threshold is measured in order to discount very dark areas with no cells.
(§4) In graphs, a single star indicates a p value of the null hypothesis being true of less than 0.05, two stars a p value of less than 0.01 and 3 stars a p value of less than 0.001. Calculation of the overall performance of the assay (in the Discussion section) was performed by calculating the Wilson Score Interval method ([Newcombe, 1998]).

[2] = system: HO1-mCherry-hiPSC-derived 3D renal organoids; assay: Blind-coded screen, mCherry fluorescence of HMOX1 reporter in 3D organoids
Procedure: as §1, §2, §3, §4

[3] = system: flat and 3D HO1-mCherry-hiPSC-derived organoids; assay: HMOX1 qPCR in the blind-coded screen, flat and 3D organoids, 24h; assay type: cell-based, human; settings: highest concentration 384µM
Procedure: A one-way ANOVA on repeated measures was performed. […]
mCherry insertion without hydrogen peroxide treatment. B) Single mCherry-positive cells were sorted into each well of 96-well plates as shown in the right panel to isolate clonal populations. Negative (wild type) cells are shown in the left panel. C) Diagram of the primers designed for verifying cassette insertion into the hiPSC genome. D) PCR products using primer pair 1 and 4 shown in C) - endogenous […]
Figure S5. HMOX1 expression in flat and 3D HO1-mCherry-hiPSC-derived flat and 3D organoids by qPCR fold-change analysis, Related to Figure 6.
HMOX1 expression fold-change compared to vehicle control in flat (white) and 3D […]

[4] = system: hiPSC-derived renal organoids; assay type: cell-based, human
Excerpt: We also stained drug-treated organoids for HMOX1 together with LTL and COL IV (Figure S3A), or JAG1 (Figure S3B), to test whether the response is localized to a specific cell type in the organoid. […] The general increase in HMOX1 expression in response to the toxic drugs, rather than specific response in proximal tubular cells, the primary site of toxicity of both drugs, could be due to the availability of the drug to all cell types of the organoid through the media in contrast to what happens in vivo where these drugs filter through the glomeruli then specifically accumulate inside the proximal tubular cells, through apical uptake pathways, where most of their toxic effect is seen.
The culture medium was aspirated, cells washed once in PBS, then fixed in 4% PFA in PBS for 15 minutes at room temperature, followed by three PBS washes of 3 min each. Cells were permeabilised and blocked for 1 hour (2% BSA, 0.3% Triton x100 in PBS). Cells were washed in PBS and incubated with primary antibodies overnight at 4 °C. Cells were washed in PBS (3x, 15 min) and incubated with secondary antibodies for 2 hrs at room temperature. Cells were washed in PBS (3x, 15 minutes) before imaging in PBS in the wells. Images were taken using a Zeiss Axiovert fluorescence microscope. […]

[5] = system: hiPSC-derived flat renal organoids; assay: RNA-seq of wild-type hiPSC-derived flat renal organoids treated with gentamicin for 24 h; assay type: cell-based, human
Excerpt: Although some transporters were more strongly expressed in the 3D organoids, the presence of Megalin and Cubulin in the flat organoids, combined with their increased suitability for high-throughput analyses, led us to adopt this form of organoid to identify a potential reporter for toxic insults in renal organoids. hiPSCs were differentiated into flat renal organoids, and their renal identity was verified by confirming expression of common renal markers (as described above and in the Methods section). We treated these flat renal organoids for 24 h with the known nephrotoxicant, gentamicin ([Regec et al., 1986], [1989]; [El Mouedden et al., 2000]), at 1 or 4 mg/mL, leaving some as vehicle-only controls (3 separate organoids per condition). Gentamicin was chosen based on the presence of Megalin and Cubulin in these organoids because they are the main endocytic receptors involved in gentamicin uptake into proximal tubule cells ([Schmitz et al., 2002]) and would be expected to be necessary for a realistic toxic response. The transcriptomes of renal organoids in these three conditions were compared using RNA-seq analyses.
In contrast, treatment with 4 mg/mL gentamicin caused the expression of 2,221 genes to increase and that of 1770 to decrease. Among the transcripts showing increased expression was KIM-1 (log fold-change: 1.67; FDR-corrected p = 0.03), a biomarker commonly associated with renal tubular necrosis (Table S1).
RNA-seq, and trimming, filtering and normalization of raw data, was performed by Edinburgh Genomics. 1 μg of total RNA/sample was used for sequencing library preparation using an Illumina TruSeq stranded mRNA kit. Sequencing was performed using a Novaseq S1 50 Paired-end run to produce 50–64 million read-pairs per sample. Reads were trimmed using Cutadapt and were aligned to the Homo sapiens reference genome (GRCh38; from Ensembl) using STAR. […] Reads were assigned to features of type ‘exon’ in the input annotation grouped by gene_id in the reference genome using Feature Counts. […] Reads were normalised using the weighted trimmed mean of M-values method. […]

[6] = system: HO1-mCherry-hiPSC-derived flat renal organoids; assay: Verification of reporter response in flat organoids to known nephrotoxicants (fluorescence, qPCR); assay type: cell-based, human; settings: increasing amounts of compound
Procedure: Total RNA was isolated from organoids using the Qiagen RNeasy mini kit. Flat organoids were dissociated and processed as per the kit protocol. 3D organoids were lysed using the lysis buffer provided in the kit and then passed through a needle to fully dissociate before continuing with the kit protocol. RNA was stored at −80 °C until use. cDNA for qPCR was prepared using 2μg RNA and cDNA for RT-PCR was prepared using 1μg of RNA. All cDNA was quality-controlled by PCR using intron-spanning primers for β-actin on cDNA, prepared with or without reverse transcriptase (primers in Table S4). RT-PCRs for OAT1 (SLC22A6) and OCT2 (SLC22A2) were carried out in multiplex reactions with primers for β-actin as loading controls (primers in Table S4). qPCRs on undifferentiated and flat organoids for HMOX1 with HPRT1 as internal control were performed using TaqMan reagents as per published protocols (Applied Biosystems, assay nos. in Table S4). For qPCRs in the blind-coded screen, quality-controlled cDNA was provided by the Edinburgh authors to the Gothenburg authors. […] The reaction was prepared via Beckman NX and measured on Applied Biosystems QuantStudio 7 Real-Time PCR System.Technical triplicates served to calculate CT mean for each gene. The ΔCT between the target gene and the mean CT of the two reference genes was calculated for each biological replicate. […]

[7] = system: undifferentiated HO1-mCherry-hiPSCs; settings: 0, 125, or 250 μM for 24 h
Procedure: RNA was stored at −80 °C until use. cDNA for qPCR was prepared using 2μg RNA and cDNA for RT-PCR was prepared using 1μg of RNA. […] 12 ng of cDNA was utilized for each qPCR reaction. TaqMan gene expression assays (Applied Biosystems, TaqMan Gene Expression FAST Master Mix) were performed on HMOX1 and house-keeping genes HPRT and RPLP0. The reaction was prepared via Beckman NX and measured on Applied Biosystems QuantStudio 7 Real-Time PCR System.Technical triplicates served to calculate CT mean for each gene. The ΔCT between the target gene and the mean CT of the two reference genes was calculated for each biological replicate. The mean ΔCT of biological triplicates was normalized to untreated sample resulting in 2^ΔΔCT. […] A one-way ANOVA on repeated measures was performed. Significant fold-change was established by Dunnett's multiple comparisons test.

[8] = flat organoids, 24 h and 72 h, 4-fold dilution series
[9] = 3D organoids, 24 h and 72 h, 4-fold dilution series

Reporter fluorescence response compared to vehicle control ([1]; flat organoids, 24 h): no significant response
Reporter fluorescence response compared to vehicle control ([2]; 3D organoids, 24 h): showed a response after 24 h treatment
Reporter fluorescence response compared to vehicle control ([2]; 3D organoids, 72 h): not after 72 h
SMILES: Nc1ccn(C[C@@H](CO)OCP(=O)(O)O)c(=O)n1 [Cidofovir]
Prediction of toxicity by increase in fluorescence intensity ([1]; Flat 24h): N
Prediction of toxicity by increase in fluorescence intensity ([1]; Flat 72h): Y
Reporter fluorescence response compared to vehicle control ([1]; flat organoids, 72 h): elicited a response at even the lowest concentration tested
Prediction of toxicity by increase in fluorescence intensity ([2]; 3D 24h): Y
Prediction of toxicity by increase in fluorescence intensity ([2]; 3D 72h): N

SMILES: N.N.[Cl][Pt][Cl] [Cisplatin]
Cell death (no cDNA obtained) [3]: massive cell death
Reporter fluorescence response compared to vehicle control [1]: significant increase in fluorescence
HMOX1 expression by immunostaining [4]: HMOX1 expression increased
Reporter fluorescence response compared to vehicle control [2]: significant increase in fluorescence
Tubular structure of treated organoids [2]: distinct loss of tubular structure

SMILES: C[C@@H]1C[C@H]2[C@@H]3CCC4=CC(=O)C=C[C@]4(C)[C@@]3(F)[C@@H](O)C[C@]2(C)[C@@]1(O)C(=O)CO [Dexamethasone]
Prediction of toxicity by increase in fluorescence intensity ([1]; Flat 24h): N
Prediction of toxicity by increase in fluorescence intensity ([1]; Flat 72h): N
Reporter fluorescence response compared to vehicle control [1, 8]: none of the concentrations produced a signal statistically different
Prediction of toxicity by increase in fluorescence intensity ([2]; 3D 24h): N
Prediction of toxicity by increase in fluorescence intensity ([2]; 3D 72h): N
Prediction of toxicity, combination of 24 and 72 h (Boolean OR) ([2]; 3D organoids): did not predict toxicity
Reporter fluorescence response compared to vehicle control [2, 9]: none of the concentrations produced a signal statistically different

Low concentration to which organoids responded (fluorescence) ([1]; human, 24 h): 2 4 μM
Log2FC HMOX1 ([5]; 4 mg/mL vs control, 24 h): 6.552 and 6.55
Expression of CLU in RNA-seq ([5]; data not shown): not up-regulated
Expression of NGAL in RNA-seq ([5]; data not shown): downregulated
HMOX1 expression by immunostaining ([4]; human): HMOX1 expression increased
Tubular structure of treated organoids [2]: maintained their tubular structures
Low concentration to which organoids responded (fluorescence) ([2]; human, 24 h): 6 µM
SMILES: CNC(C)C1CCC(N)C(OC2C(N)CC(N)C(OC3OCC(C)(O)C(NC)C3O)C2O)O1 (stereo not drawn) [Gentamicin]
Prediction of toxicity by increase in fluorescence intensity [2]: Y
mCherry fluorescence intensity (fold-change relative to vehicle control) [6]: increased in a dose-dependent manner

SMILES: O=P1(NCCCl)OCCCN1CCCl (stereo not drawn) [Ifosfamide]
Prediction of toxicity by increase in fluorescence intensity ([1]; Flat 24h): Y
Prediction of toxicity by increase in fluorescence intensity ([1]; Flat 72h): Y
Reporter fluorescence response compared to vehicle control [1, 8]: significant fluorescence increase
Prediction of toxicity by increase in fluorescence intensity ([2]; 3D 24h): Y
Prediction of toxicity by increase in fluorescence intensity ([2]; 3D 72h): Y
Reporter fluorescence response compared to vehicle control [2, 9]: significant fluorescence increase

SMILES: CC(C(=O)O)c1cccc(C(=O)c2ccccc2)c1 (stereo not drawn) [Ketoprofen]
Prediction of toxicity by increase in fluorescence intensity ([1]; Flat 24h): Y
Prediction of toxicity by increase in fluorescence intensity ([1]; Flat 72h): Y
Reporter fluorescence response compared to vehicle control [1, 8]: significant response in the flat cultures at the two highest concentrations
Prediction of toxicity by increase in fluorescence intensity ([2]; 3D 24h): N
Prediction of toxicity by increase in fluorescence intensity ([2]; 3D 72h): N
Reporter fluorescence response compared to vehicle control ([2]; 3D organoids, 72 h): only at the highest concentration after 72 h

SMILES: COc1ccc(C[C@H](N)C(=O)N[C@H]2[C@@H](O)[C@H](n3cnc4c(N(C)C)ncnc43)O[C@@H]2CO)cc1 [Puromycin]
Reporter fluorescence response compared to vehicle control ([1]; human): significant rise in fluorescence after both 24 and 72 h
Reporter fluorescence response compared to vehicle control ([2]; human): significant rise in fluorescence after both 24 and 72 h

SMILES: OO [hydrogen peroxide]
HMOX1 transcripts by qPCR [7]: increase in HMOX1 transcripts
mCherry fluorescence [7]: increased in a dose-dependent manner

From paper PMC8861638, “Human iPSC-derived renal organoids engineered to report oxidative stress can predict drug-induced toxicity” (iScience, 2022)
